Source: patent US20240182531A1, “KV1.3 Blockers” (priority 2021, published 2024)
Where a SMILES comes first, the peptide text is derived from it. Bridges are numbered along the chain shown (N, C = ends). [ ]: non-standard residue; d: D form. Nle = CCCC[C@H](N)C(=O)O

What was measured:
human Kv1.1 = molecular target: T1, human Kv1.1 (Homo sapiens, UniProt Q09470); assay: cell-based; conditions: ratio of patch clamp IC50 values
T1 construct: expressed in transfected cells; host or cells: CHO

human Kv1.2 = molecular target: T2, human Kv1.2 (Homo sapiens, UniProt P16389); assay: cell-based; conditions: ratio of patch clamp IC50 values
T2 construct: expressed in transfected cells; host or cells: CHO

human Kv1.6 = molecular target: T3, human Kv1.6 (Homo sapiens, UniProt P17658); assay: cell-based; conditions: ratio of patch clamp IC50 values
T3 construct: expressed in transfected cells; host or cells: CHO

Rat whole blood = Rat whole blood (Rattus norvegicus, UniProt P15384); type: cell-based; conditions: IL-17A release, thapsigargin, 24 Hr, at least 2 replicates
Chain of Rat whole blood (P15384 whole entry): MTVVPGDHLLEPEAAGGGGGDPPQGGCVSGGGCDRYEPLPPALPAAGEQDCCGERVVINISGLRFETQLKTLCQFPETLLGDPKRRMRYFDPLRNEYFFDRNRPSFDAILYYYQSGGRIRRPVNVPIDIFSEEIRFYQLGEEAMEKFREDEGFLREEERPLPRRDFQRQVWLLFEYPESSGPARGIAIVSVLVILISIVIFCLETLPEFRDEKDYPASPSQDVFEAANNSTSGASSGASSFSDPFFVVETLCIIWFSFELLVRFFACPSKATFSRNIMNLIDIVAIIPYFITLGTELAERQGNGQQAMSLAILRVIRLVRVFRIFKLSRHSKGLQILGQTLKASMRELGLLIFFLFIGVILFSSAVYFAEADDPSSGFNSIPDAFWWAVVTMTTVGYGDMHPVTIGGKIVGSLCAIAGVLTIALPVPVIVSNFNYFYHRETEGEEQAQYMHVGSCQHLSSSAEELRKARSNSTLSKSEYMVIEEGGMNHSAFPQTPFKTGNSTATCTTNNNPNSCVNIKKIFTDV

T1 sequence (Q09470 whole entry): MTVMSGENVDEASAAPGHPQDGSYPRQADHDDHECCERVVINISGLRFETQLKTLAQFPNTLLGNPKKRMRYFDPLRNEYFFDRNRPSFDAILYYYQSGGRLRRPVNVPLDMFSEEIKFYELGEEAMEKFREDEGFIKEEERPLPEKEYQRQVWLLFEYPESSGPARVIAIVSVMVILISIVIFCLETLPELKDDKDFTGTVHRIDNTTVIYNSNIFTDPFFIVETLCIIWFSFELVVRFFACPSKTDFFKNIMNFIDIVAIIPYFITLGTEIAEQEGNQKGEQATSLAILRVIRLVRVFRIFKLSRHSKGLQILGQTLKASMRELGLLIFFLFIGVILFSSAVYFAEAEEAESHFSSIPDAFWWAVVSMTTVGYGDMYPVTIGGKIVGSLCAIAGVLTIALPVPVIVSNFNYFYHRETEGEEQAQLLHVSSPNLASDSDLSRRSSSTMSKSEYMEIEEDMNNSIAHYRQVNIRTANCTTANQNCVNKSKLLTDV
T3 sequence (P17658 whole entry): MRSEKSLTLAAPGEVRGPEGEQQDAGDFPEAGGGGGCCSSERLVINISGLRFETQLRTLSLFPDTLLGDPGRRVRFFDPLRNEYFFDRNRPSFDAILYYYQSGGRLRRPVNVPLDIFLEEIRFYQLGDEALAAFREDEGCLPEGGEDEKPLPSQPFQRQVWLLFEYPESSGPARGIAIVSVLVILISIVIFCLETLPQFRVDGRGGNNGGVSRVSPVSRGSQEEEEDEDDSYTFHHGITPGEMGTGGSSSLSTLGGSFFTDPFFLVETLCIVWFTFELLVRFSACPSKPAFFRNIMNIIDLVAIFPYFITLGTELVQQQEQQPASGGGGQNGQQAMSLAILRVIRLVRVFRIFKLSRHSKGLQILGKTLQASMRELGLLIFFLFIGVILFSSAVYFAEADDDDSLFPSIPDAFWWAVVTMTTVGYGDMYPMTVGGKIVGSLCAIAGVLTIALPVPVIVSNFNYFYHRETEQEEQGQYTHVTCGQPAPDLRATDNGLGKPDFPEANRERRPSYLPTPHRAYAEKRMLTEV
T2 sequence (P16389 whole entry): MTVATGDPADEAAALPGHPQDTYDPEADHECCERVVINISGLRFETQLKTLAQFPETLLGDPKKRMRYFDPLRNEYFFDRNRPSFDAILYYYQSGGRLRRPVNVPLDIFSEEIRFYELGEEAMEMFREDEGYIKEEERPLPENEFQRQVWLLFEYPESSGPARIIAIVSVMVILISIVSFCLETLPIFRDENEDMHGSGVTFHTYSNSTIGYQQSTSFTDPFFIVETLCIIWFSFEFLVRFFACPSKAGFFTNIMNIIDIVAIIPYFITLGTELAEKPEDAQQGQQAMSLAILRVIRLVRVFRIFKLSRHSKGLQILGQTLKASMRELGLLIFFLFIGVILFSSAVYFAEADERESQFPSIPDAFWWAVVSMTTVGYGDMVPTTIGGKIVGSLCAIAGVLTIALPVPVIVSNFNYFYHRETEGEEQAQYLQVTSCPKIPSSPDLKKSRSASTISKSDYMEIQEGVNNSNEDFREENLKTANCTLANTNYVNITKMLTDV

SMILES | Selectivity ratio Kv1.1/Kv1.3 (human Kv1.1) | Selectivity ratio Kv1.2/Kv1.3 (human Kv1.2) | Selectivity ratio Kv1.6/Kv1.3 (human Kv1.6) | IC50 (Rat whole blood)
CC[C@H](C)[C@@H]1NC(=O)[C@H](CO)NC(=O)CNC(=O)[C@H](Cc2ccc(O)cc2)NC(=O)[C@H](C)NC(=O)[C@H](CCCCN)NC(=O)[C@H](CC(C)C)NC(=O)[C@@H]2CSSC[C@@H](C(=O)N[C@@H](Cc3ccc(O)cc3)C(=O)N3CCC[C@H]3C(=O)N[C@@H](CCCNC(=N)N)C(N)=O)NC(=O)[C@H](CCCCN)NC(=O)[C@@H]3CSSC[C@H](NC(=O)[C@H](CCC(=O)O)NC(=O)[C@H](C(C)C)NC(=O)[C@H](CO)NC(=O)[C@H](C)NC(=O)[C@H](CO)NC(=O)[C@@H](NC(=O)[C@H](CCCNC(=N)N)NC(=O)[C@H](CCSC)NC(=O)[C@H](CC(=O)O)NC(=O)[C@H](CCSC)NC(=O)[C@@H](N)CC(N)=O)CSSC[C@H](NC(=O)[C@H](CCCCN)NC(=O)CNC(=O)[C@H](Cc4ccccc4)NC1=O)C(=O)N[C@@H](CCSC)C(=O)N[C@@H](CC(N)=O)C(=O)N[C@@H](CCCCN)C(=O)N[C@@H](CCCCN)C(=O)N3)C(=O)N[C@@H](CCCCN)C(=O)N[C@@H](CCC(N)=O)C(=O)N[C@@H](CCCCN)C(=O)N2 [compound 61] (H-NMDMRCSASVECKQKCLKAYGSIFGKCMNKKCKCYPR-NH2; disulfide 6-27, 12-32, 16-34) | >8800 | 426 | >8800 | –
CC[C@H](C)[C@@H]1NC(=O)[C@H](C)NC(=O)[C@H](CCCCN)NC(=O)[C@H](CC(C)C)NC(=O)[C@@H]2CSSC[C@@H](C(=O)N[C@@H](Cc3ccc(O)cc3)C(=O)N3CCC[C@H]3C(=O)N[C@@H](CCCNC(=N)N)C(=O)O)NC(=O)[C@H](CCCCN)NC(=O)[C@@H]3CSSC[C@H](NC(=O)[C@H](CCC(=O)O)NC(=O)[C@H](C(C)C)NC(=O)[C@H](CO)NC(=O)[C@H](C)NC(=O)[C@H](CO)NC(=O)[C@@H](NC(=O)[C@H](CCCNC(=N)N)NC(=O)[C@H](CCSC)NC(=O)[C@H](CC(=O)O)NC(=O)[C@@H](NC(=O)[C@@H](N)CC(N)=O)[C@@H](C)CC)CSSC[C@H](NC(=O)[C@H](CCCCN)NC(=O)CNC(=O)[C@H](Cc4ccccc4)NC(=O)[C@H]([C@@H](C)CC)NC(=O)[C@H](CO)NC(=O)CNC1=O)C(=O)N[C@@H](CCSC)C(=O)N[C@@H](CC(N)=O)C(=O)N[C@@H](CCCCN)C(=O)N[C@@H](CCCCN)C(=O)N3)C(=O)N[C@@H](CCCCN)C(=O)N[C@@H](CCC(N)=O)C(=O)N[C@@H](CCCCN)C(=O)N2 [compound 19] (H-NIDMRCSASVECKQKCLKAIGSIFGKCMNKKCKCYPR-OH; disulfide 6-27, 12-32, 16-34) | >6800 | 857 | >6800 | –
CC[C@H](C)[C@@H]1NC(=O)[C@H](C)NC(=O)[C@H](Cc2ccc(O)cc2)NC(=O)[C@H](CC(C)C)NC(=O)[C@@H]2CSSC[C@@H](C(=O)N[C@@H](Cc3ccc(O)cc3)C(=O)N3CCC[C@H]3C(=O)N[C@@H](CCCNC(=N)N)C(N)=O)NC(=O)[C@H](CCCCN)NC(=O)[C@@H]3CSSC[C@H](NC(=O)[C@H](CCC(=O)O)NC(=O)[C@H](C(C)C)NC(=O)[C@H](CO)NC(=O)[C@H](C)NC(=O)[C@H](CO)NC(=O)[C@@H](NC(=O)[C@H](CCCNC(=N)N)NC(=O)[C@H](CCSC)NC(=O)[C@H](CC(=O)O)NC(=O)[C@H](CCSC)NC(=O)[C@@H](N)CC(N)=O)CSSC[C@H](NC(=O)[C@H](CCCCN)NC(=O)CNC(=O)[C@H](Cc4ccccc4)NC(=O)[C@H]([C@@H](C)CC)NC(=O)[C@H](CO)NC(=O)CNC1=O)C(=O)N[C@@H](CCSC)C(=O)N[C@@H](CC(N)=O)C(=O)N[C@@H](CCCCN)C(=O)N[C@@H](CCCCN)C(=O)N3)C(=O)N[C@@H](CCCCN)C(=O)N[C@@H](CCC(N)=O)C(=O)N[C@@H](CCCCN)C(=O)N2 [compound 57] (H-NMDMRCSASVECKQKCLYAIGSIFGKCMNKKCKCYPR-NH2; disulfide 6-27, 12-32, 16-34) | >10300 | 514 | >10300 | –
CC[C@H](C)[C@@H]1NC(=O)[C@H](C)NC(=O)[C@H](CC(C)C)NC(=O)[C@@H]2CSSC[C@@H](C(=O)N[C@@H](Cc3ccc(O)cc3)C(=O)N3CCC[C@H]3C(=O)N[C@@H](CCCNC(=N)N)C(N)=O)NC(=O)[C@H](CCCCN)NC(=O)[C@@H]3CSSC[C@H](NC(=O)[C@H](CCC(=O)O)NC(=O)[C@H](C(C)C)NC(=O)[C@H](CO)NC(=O)[C@H](C)NC(=O)[C@H](CO)NC(=O)[C@@H](NC(=O)[C@H](CCCNC(=N)N)NC(=O)[C@H](CCSC)NC(=O)[C@H](CC(=O)O)NC(=O)[C@H](CCSC)NC(=O)[C@@H](N)CC(N)=O)CSSC[C@H](NC(=O)[C@H](CCCCN)NC(=O)CNC(=O)[C@H](Cc4ccccc4)NC(=O)[C@H]([C@@H](C)CC)NC(=O)[C@H](CO)NC(=O)CNC1=O)C(=O)N[C@@H](CCSC)C(=O)N[C@@H](CC(N)=O)C(=O)N[C@@H](CCCCN)C(=O)N[C@@H](CCCCN)C(=O)N3)C(=O)N[C@@H](CCCCN)C(=O)N[C@@H](CCC(N)=O)C(=O)N[C@@H](CCCCN)C(=O)N2 [compound 58] (H-NMDMRCSASVECKQKCLAIGSIFGKCMNKKCKCYPR-NH2; disulfide 6-26, 12-31, 16-33) | >1200 | 121 | >1200 | –
CC[C@H](C)[C@@H]1NC(=O)[C@H](C)NC(=O)[C@H](CCCCN)NC(=O)[C@H](CC(C)C)NC(=O)[C@@H]2CSSC[C@@H](C(=O)N[C@@H](Cc3ccc(O)cc3)C(=O)N3CCC[C@H]3C(=O)N[C@@H](CCCNC(=N)N)C(=O)O)NC(=O)[C@H](CCCCN)NC(=O)[C@@H]3CSSC[C@H](NC(=O)[C@H](CCC(=O)O)NC(=O)[C@H](C(C)C)NC(=O)[C@H](CO)NC(=O)[C@H](C)NC(=O)[C@H](CO)NC(=O)[C@@H](NC(=O)[C@H](CCCNC(=N)N)NC(=O)[C@H](CCSC)NC(=O)[C@H](CC(=O)O)NC(=O)[C@@H](N)CCSC)CSSC[C@H](NC(=O)[C@H](CCCCN)NC(=O)CNC(=O)[C@H](Cc4ccccc4)NC(=O)[C@H]([C@@H](C)CC)NC(=O)[C@H](CO)NC(=O)CNC1=O)C(=O)N[C@@H](CCSC)C(=O)N[C@@H](CC(N)=O)C(=O)N[C@@H](CCCCN)C(=O)N[C@@H](CCCCN)C(=O)N3)C(=O)N[C@@H](CCCCN)C(=O)N[C@@H](CCC(N)=O)C(=O)N[C@@H](CCCCN)C(=O)N2 [compound 18] (H-MDMRCSASVECKQKCLKAIGSIFGKCMNKKCKCYPR-OH; disulfide 5-26, 11-31, 15-33) | >7900 | 747 | >7900 | –
CCCC[C@@H]1NC(=O)[C@@H]2CSSC[C@H](NC(=O)[C@H](CCCNC(=N)N)NC(=O)[C@H](CCCC)NC(=O)[C@H](CC(=O)O)NC(=O)[C@H](CCCC)NC(=O)[C@@H](N)CC(N)=O)C(=O)N[C@@H](CO)C(=O)N[C@@H](C)C(=O)N[C@@H](CO)C(=O)N[C@@H](C(C)C)C(=O)N[C@@H](CCC(=O)O)C(=O)N[C@H]3CSSC[C@H](NC(=O)[C@H](CCCCN)NC(=O)[C@H](CCCCN)NC(=O)[C@H](CC(N)=O)NC1=O)C(=O)N[C@@H](CCCCN)C(=O)N[C@H](C(=O)N[C@@H](Cc1ccc(O)cc1)C(=O)N1CCC[C@H]1C(=O)N[C@@H](CCCNC(=N)N)C(N)=O)CSSC[C@H](NC(=O)[C@H](CCCCN)NC(=O)[C@H](CCC(N)=O)NC(=O)[C@H](CCCCN)NC3=O)C(=O)N[C@@H](CC(C)C)C(=O)N[C@@H](CCCCN)C(=O)N[C@@H](C)C(=O)N[C@@H]([C@@H](C)CC)C(=O)NCC(=O)N[C@@H](CO)C(=O)N[C@@H]([C@@H](C)CC)C(=O)N[C@@H](Cc1ccccc1)C(=O)NCC(=O)N[C@@H](CCCCN)C(=O)N2 [compound 44] (H-N[Nle]D[Nle]RCSASVECKQKCLKAIGSIFGKC[Nle]NKKCKCYPR-NH2; disulfide 6-27, 12-32, 16-34) | >11600 | 436 | 7073 | –
CC[C@H](C)[C@@H]1NC(=O)[C@H](C)NC(=O)[C@H](CCCCN)NC(=O)[C@H](CC(C)C)NC(=O)[C@@H]2CSSC[C@@H](C(=O)N[C@@H](Cc3ccc(O)cc3)C(=O)N3CCC[C@H]3C(=O)N[C@@H](CCCNC(=N)N)C(N)=O)NC(=O)[C@H](CCCCN)NC(=O)[C@@H]3CSSC[C@H](NC(=O)[C@H](CCC(=O)O)NC(=O)[C@H](C(C)C)NC(=O)[C@H](CO)NC(=O)[C@H](C)NC(=O)[C@H](CO)NC(=O)[C@@H](NC(=O)[C@H](CCCNC(=N)N)NC(=O)[C@H](CCSC)NC(=O)[C@H](CC(=O)O)NC(=O)[C@H](CCSC)NC(=O)[C@@H](N)CC(N)=O)CSSC[C@H](NC(=O)[C@H](CCCCN)NC(=O)CNC(=O)[C@H](Cc4ccccc4)NC(=O)[C@H]([C@@H](C)CC)NC(=O)[C@H](CO)NC(=O)CNC1=O)C(=O)N[C@@H](CCSC)C(=O)N[C@@H](CC(N)=O)C(=O)N[C@@H](CCCCN)C(=O)N[C@@H](CCCCN)C(=O)N3)C(=O)N[C@@H](CCCCN)C(=O)N[C@@H](CC(C)C)C(=O)N[C@@H](CCCCN)C(=O)N2 [compound 36] (H-NMDMRCSASVECKLKCLKAIGSIFGKCMNKKCKCYPR-NH2; disulfide 6-27, 12-32, 16-34) | – | – | – | 750 pM
